# In patent US20160115540A1, “PRODRUGS AND DRUGS” (Biogen MA Inc., priority 2013, published 2016):
# Counter-ions that a name gives are not always drawn.
# Tested on: jejunum
# Experiment: Transcriptional profiling on Affymetrix GeneChips, single dose, naïve mice: jejunum
# Type: in vivo, C57BL/6 mice
# Conditions: for Number of differentially expressed genes identified: Jenjunum: Naïve, Single Dose, 100 mpk, vs Vehicle
# Protocol: Treated mice were sacrificed at 2, 7, or 12 hours. Tissues (liver, spleen, kidney, jejunum, cortex, hippocampus, striatum and whole blood) were collected and analyzed by transcriptional profiling on mouse Affymetrix GeneChips.
# Tissues (liver, spleen, kidney, jejunum, cortex, hippocampus, striatum and whole blood) were collected and analyzed by transcriptional profiling on mouse Affymetrix GeneChips.
# Animals were exposed to CO2 and whole blood collected via cardiac puncture. Two 100 μl aliquots of whole blood were collected in 1.5 mL microcentrifuge tubes and snap frozen in liquid nitrogen. Peripheral (liver, spleen, kidney and jejunum) and CNS brain (cerebellum, hippocampus, striatum and cortex) tissues were harvested and snap frozen in liquid nitrogen, with special care taken to collect tissues of similar size and from the same location. All samples were stored at −80° C. until RNA extraction was conducted.
# For RNA preparation, frozen tissues were placed in 2 mL RNAse-free 96-well blocks with 1.5 mL QIAzol Lysis Reagent (QIAgen) and a 3.2 mm stainless steel bead (BioSpec Products, Bartlesville, Okla.). Tissues were disrupted for four cycles of 45 seconds in a Mini-Beadbeater (Biospec Products). RNA was extracted in chloroform and the aqueous phase was mixed with an equal volume of 70% ethanol. Extracted RNA was applied to RNeasy 96 plates and purified by the spin method according to the manufacturer's protocol (RNeasy 96 Universal Tissue Protocol, QIAgen, Hilden Germany).
# Automated sample amplifications and biotin labelings were carried out using the NuGEN Ovation RNA Amplification system V2 (Cat #3100), Ovation WB reagent (Cat #1300) and Encore Biotin module (Cat #4200) (NuGEN Technologies, Inc, San Carlos, Calif.) according to manufacturer's recommendations using an Arrayplex automated liquid handler (Beckman Coulter, Indianapolis, Ind.). Two micrograms of biotin labeled sscDNA probe were hybridized to Affymetrix GeneChip Affymetrix HT_MG-430_PM plate arrays with modified conditions as described in Allaire et al. Washing and staining of the hybridized arrays were completed as described in the GeneChip Expression analysis technical manual for HT plate arrays using the Genechip® Array Station (Affymetrix, Santa Clara, Calif.) with modifications as described in Allaire et al. The processed GeneChip® plate arrays were scanned using GeneTitan scanner (Affymetrix, Santa Clara, Calif.).
# Affymetrix scans were subject to quality control (QC) measures. These tests included a visual inspection of the distribution of raw signal intensities and an assessment of RNA degradation, relative log expression (RLE), and normalized unsealed standard error (NUSE). All sample scans that passed these QC metrics were included in the analysis.
# All CEL files were subjected to GC-content-based Robust Multi-array Average (GCRMA) normalization (version 2.20.0) (Irizarry R A, et al. Nucleic Acids Res 2003; 31:e15; Li C, et al. Genome Biol 2001; 2:[…]0032). Expression levels were log (base 2) transformed.
# All calculations and analyses were carried out using R (version 2.11.1) and Bioconductor computational tools (Gentleman R. Springer Science+Business Media 2005).
# [1] = jejunum, 2 hr after single 100 mg/kg oral dose
# [2] = jejunum, 7 hr after single 100 mg/kg oral dose
# [3] = jejunum, 12 hr after single 100 mg/kg oral dose
structure (smiles),measurement,setting,value
"COC(=O)/C=C/C(=O)O [MMF, monomethyl fumarate]",Gstm7 (1419072_PM_at) differential expression,"Jejunum, 7 hr",1.97
same,Htatip2 (1451814_PM_a_at) differential expression,"Jejunum, 7 hr",1.68
same,Ifit1 (1450783_PM_at) differential expression,"Jejunum, 7 hr",−1.95
same,Matn2 (1419442_PM_at) differential expression,"Jejunum, 7 hr",1.59
same,Me1 (1416632_PM_at) differential expression,"Jejunum, 7 hr",2.01
same,Nqo1 (1423627_PM_at) differential expression,"Jejunum, 7 hr",2.63
same,Pgd (1423706_PM_a_at) differential expression,"Jejunum, 7 hr",1.55
same,Pgm2 (1437240_PM_at) differential expression,"Jejunum, 7 hr",1.54
same,Pir (1429001_PM_at) differential expression,"Jejunum, 7 hr",5.12
same,Prss8 (1418320_PM_at) differential expression,"Jejunum, 7 hr",1.75
same,Rsad2 (1436058_PM_at) differential expression,"Jejunum, 7 hr",−1.81
same,Rtp4 (1418580_PM_at) differential expression,"Jejunum, 7 hr",−1.61
same,Setd4 (1435405_PM_at) differential expression,"Jejunum, 7 hr",2.27
same,Slc5a4b (1422757_PM_at) differential expression,"Jejunum, 7 hr",1.79
same,Slc35e3 (1428805_PM_at) differential expression,"Jejunum, 7 hr",1.67
same,Txnrd1 (1424487_PM_x_at) differential expression,"Jejunum, 7 hr",2.07
same,Ugt2b5 (1419622_PM_at) differential expression,"Jejunum, 7 hr",4.50
same,Ugt2b36 (1455595_PM_at) differential expression,"Jejunum, 7 hr",2.50
same,Abcc3 (1428988_PM_at) differential expression,"Jejunum, 12 hr",2.10
same,Acsm5 (1437662_PM_at) differential expression,"Jejunum, 12 hr",1.95
same,Akr1c12 (1422000_PM_at) differential expression,"Jejunum, 12 hr",1.52
same,Akr1c12 /// Akr1c13 (1450455_PM_s_at) differential expression,"Jejunum, 12 hr",1.76
same,Akr1c13 (1418672_PM_at) differential expression,"Jejunum, 12 hr",2.01
same,Aldh1a7 (1418601_PM_at) differential expression,"Jejunum, 12 hr",1.74
same,Apob (1457554_PM_at) differential expression,"Jejunum, 12 hr",−1.54
same,Blvrb (1451386_PM_at) differential expression,"Jejunum, 12 hr",1.54
same,Ces1e (1419510_PM_at) differential expression,"Jejunum, 12 hr",2.77
same,Dio1 (1417991_PM_at) differential expression,"Jejunum, 12 hr",−1.51
same,Ephx1 (1422438_PM_at) differential expression,"Jejunum, 12 hr",2.17
same,Fst (1434458_PM_at) differential expression,"Jejunum, 12 hr",1.94
same,G6pd2 /// G6pdx (1422327_PM_s_at) differential expression,"Jejunum, 12 hr",1.83
same,Gm3776 /// Gsta1 /// Gsta2 (1421041_PM_s_at) differential expression,"Jejunum, 12 hr",2.09
same,Gpx2 (1449279_PM_at) differential expression,"Jejunum, 12 hr",1.54
same,Gsr (1421816_PM_at) differential expression,"Jejunum, 12 hr",2.67
same,Gss (1441931_PM_x_at) differential expression,"Jejunum, 12 hr",1.55
same,Gsta3 (1423436_PM_at) differential expression,"Jejunum, 12 hr",10.80
same,Gsta4 (1416368_PM_at) differential expression,"Jejunum, 12 hr",2.66
same,Gstm1 (1416416_PM_x_at) differential expression,"Jejunum, 12 hr",3.70
same,Gstm2 (1416411_PM_at) differential expression,"Jejunum, 12 hr",2.20
same,Gstm4 (1424835_PM_at) differential expression,"Jejunum, 12 hr",5.43
same,Gstm6 (1422072_PM_a_at) differential expression,"Jejunum, 12 hr",2.19
same,Kif1b (1451642_PM_at) differential expression,"Jejunum, 12 hr",−1.51
same,Nqo1 (1423627_PM_at) differential expression,"Jejunum, 12 hr",2.34
same,Pir (1429001_PM_at) differential expression,"Jejunum, 12 hr",4.19
same,Setd4 (1435405_PM_at) differential expression,"Jejunum, 12 hr",1.60
same,Slc5a4b (1422757_PM_at) differential expression,"Jejunum, 12 hr",2.16
same,Ugt2b5 (1419622_PM_at) differential expression,"Jejunum, 12 hr",5.00
same,Ugt2b36 (1455595_PM_at) differential expression,"Jejunum, 12 hr",3.03
same,Number of differentially expressed genes identified: Jenjunum,2 h after last dosing,67
same,Number of differentially expressed genes identified: Jenjunum,7 h after last dosing,74
same,Number of differentially expressed genes identified: Jenjunum,12 h after last dosing,45
same,6-Sep (septin 6) mRNA fold change vs vehicle,[1],1.56
same,Bmp2 mRNA fold change vs vehicle,[1],−1.55
same,Figf mRNA fold change vs vehicle,[1],1.63
same,Gabarapl1 mRNA fold change vs vehicle,[1],1.52
same,Hfe mRNA fold change vs vehicle,[1],1.73
same,Hmox1 mRNA fold change vs vehicle,[1],1.81
same,Lpin2 mRNA fold change vs vehicle,[1],1.61
same,Lrp8 mRNA fold change vs vehicle,[1],2.23
same,Prr5l mRNA fold change vs vehicle,[1],−1.64
same,Slc2a1 mRNA fold change vs vehicle,[1],1.68
same,Slc48a1 mRNA fold change vs vehicle,[1],1.62
same,Slfn2 mRNA fold change vs vehicle,[1],−1.82
same,Sos1 mRNA fold change vs vehicle,[1],−1.57
same,St3gal6 mRNA fold change vs vehicle,[1],1.52
same,Tkt mRNA fold change vs vehicle,[1],1.73
same,Tnfaip3 mRNA fold change vs vehicle,[1],−1.67
same,Abcc2 mRNA fold change vs vehicle,[2],1.51
same,Asns mRNA fold change vs vehicle,[2],1.60
same,Capn13 mRNA fold change vs vehicle,[2],−1.75
same,Enkur mRNA fold change vs vehicle,[2],−1.56
same,Fam162a mRNA fold change vs vehicle,[2],1.67
same,Gm14446 mRNA fold change vs vehicle,[2],−1.65
same,Gstm7 mRNA fold change vs vehicle,[2],1.97
same,Ifit1 mRNA fold change vs vehicle,[2],−1.95
same,Matn2 mRNA fold change vs vehicle,[2],1.59
same,Me1 mRNA fold change vs vehicle,[2],2.01
same,Pgd mRNA fold change vs vehicle,[2],1.55
same,Rsad2 mRNA fold change vs vehicle,[2],−1.81
same,Rtp4 mRNA fold change vs vehicle,[2],−1.61
same,Akr1c12 mRNA fold change vs vehicle,[3],1.52
same,Apob mRNA fold change vs vehicle,[3],−1.54
same,Dio1 mRNA fold change vs vehicle,[3],−1.51
same,Ephx1 mRNA fold change vs vehicle,[3],2.17
same,Fst mRNA fold change vs vehicle,[3],1.94
same,Kif1b mRNA fold change vs vehicle,[3],−1.51
